In ChEMBL document CHEMBL5291721, “A preclinical secondary pharmacology resource illuminates target-adverse drug reaction associations of marketed drugs” (Nat Commun, 2023):
One block for each compound: values may come before it.

How the values were obtained:
[1] = biological target: T1, Alpha-1A adrenergic receptor (Homo sapiens, UniProt P35348)
T1 sequence (P35348 whole entry): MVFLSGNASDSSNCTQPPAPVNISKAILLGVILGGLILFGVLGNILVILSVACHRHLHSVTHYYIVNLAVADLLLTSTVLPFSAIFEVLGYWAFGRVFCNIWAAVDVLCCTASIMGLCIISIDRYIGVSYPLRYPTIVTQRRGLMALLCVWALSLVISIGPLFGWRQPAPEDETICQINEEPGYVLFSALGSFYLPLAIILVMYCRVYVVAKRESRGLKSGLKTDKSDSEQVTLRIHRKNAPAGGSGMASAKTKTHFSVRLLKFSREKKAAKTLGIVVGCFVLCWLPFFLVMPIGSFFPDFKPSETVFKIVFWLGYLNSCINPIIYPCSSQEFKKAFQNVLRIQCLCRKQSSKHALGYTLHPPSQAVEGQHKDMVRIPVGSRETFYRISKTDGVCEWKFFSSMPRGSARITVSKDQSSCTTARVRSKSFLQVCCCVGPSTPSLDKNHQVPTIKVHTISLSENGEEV

[2] = biological target: Beta-1 adrenergic receptor (Homo sapiens, UniProt P08588); format: functional, cell-based
Beta-1 adrenergic receptor, sequence (P08588 whole entry): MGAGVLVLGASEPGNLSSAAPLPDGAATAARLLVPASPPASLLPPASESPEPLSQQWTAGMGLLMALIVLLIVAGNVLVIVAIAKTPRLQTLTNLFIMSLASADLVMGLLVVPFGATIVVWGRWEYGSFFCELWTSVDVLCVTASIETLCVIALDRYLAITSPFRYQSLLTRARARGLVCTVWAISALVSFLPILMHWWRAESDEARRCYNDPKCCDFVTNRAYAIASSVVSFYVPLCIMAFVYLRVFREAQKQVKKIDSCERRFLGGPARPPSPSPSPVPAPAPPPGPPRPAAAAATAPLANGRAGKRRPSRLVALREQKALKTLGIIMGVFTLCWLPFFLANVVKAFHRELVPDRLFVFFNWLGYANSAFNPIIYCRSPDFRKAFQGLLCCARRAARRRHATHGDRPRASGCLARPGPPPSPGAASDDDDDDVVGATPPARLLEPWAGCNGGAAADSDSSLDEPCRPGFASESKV

[3] = biological target: T2, Oxysterols receptor LXR-beta (Homo sapiens, UniProt P55055); format: functional
T2 sequence (P55055 whole entry): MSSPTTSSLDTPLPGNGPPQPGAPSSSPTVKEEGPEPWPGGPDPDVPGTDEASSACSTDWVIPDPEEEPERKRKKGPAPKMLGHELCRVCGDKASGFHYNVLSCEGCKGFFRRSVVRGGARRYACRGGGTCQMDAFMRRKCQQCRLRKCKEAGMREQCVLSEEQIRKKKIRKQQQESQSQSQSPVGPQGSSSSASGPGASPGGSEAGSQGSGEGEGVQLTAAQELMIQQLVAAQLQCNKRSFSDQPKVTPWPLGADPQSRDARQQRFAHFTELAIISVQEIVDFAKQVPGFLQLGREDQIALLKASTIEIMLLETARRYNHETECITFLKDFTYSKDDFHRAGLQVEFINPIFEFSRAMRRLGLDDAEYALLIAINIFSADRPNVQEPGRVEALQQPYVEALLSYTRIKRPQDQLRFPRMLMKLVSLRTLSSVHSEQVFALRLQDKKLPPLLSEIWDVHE

[4] = biological target: T2, Oxysterols receptor LXR-beta; format: functional; remark: listed apart in the source
Bile acid receptor [5] = biological target: T3, Bile acid receptor (Homo sapiens, UniProt Q96RI1); format: functional
T3 sequence (Q96RI1 whole entry): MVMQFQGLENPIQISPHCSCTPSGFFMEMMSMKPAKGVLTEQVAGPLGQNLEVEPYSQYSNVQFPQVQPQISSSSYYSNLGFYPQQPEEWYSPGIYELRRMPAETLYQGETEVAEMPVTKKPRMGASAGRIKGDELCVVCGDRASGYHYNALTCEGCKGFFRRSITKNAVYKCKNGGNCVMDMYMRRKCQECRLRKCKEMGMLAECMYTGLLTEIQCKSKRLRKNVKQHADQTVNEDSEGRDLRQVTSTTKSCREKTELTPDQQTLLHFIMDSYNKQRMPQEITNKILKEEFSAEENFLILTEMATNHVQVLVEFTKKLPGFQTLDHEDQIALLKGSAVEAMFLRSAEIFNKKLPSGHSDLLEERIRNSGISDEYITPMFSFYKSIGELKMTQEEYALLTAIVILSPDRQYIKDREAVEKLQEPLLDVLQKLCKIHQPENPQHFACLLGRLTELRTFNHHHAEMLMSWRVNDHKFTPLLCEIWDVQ

Bile acid receptor [6] = biological target: T3, Bile acid receptor; format: functional; remark: listed apart in the source
[7] = biological target: T4, Retinoic acid receptor beta (Homo sapiens, UniProt P10826); format: functional, cell-based
T4 sequence (P10826 whole entry): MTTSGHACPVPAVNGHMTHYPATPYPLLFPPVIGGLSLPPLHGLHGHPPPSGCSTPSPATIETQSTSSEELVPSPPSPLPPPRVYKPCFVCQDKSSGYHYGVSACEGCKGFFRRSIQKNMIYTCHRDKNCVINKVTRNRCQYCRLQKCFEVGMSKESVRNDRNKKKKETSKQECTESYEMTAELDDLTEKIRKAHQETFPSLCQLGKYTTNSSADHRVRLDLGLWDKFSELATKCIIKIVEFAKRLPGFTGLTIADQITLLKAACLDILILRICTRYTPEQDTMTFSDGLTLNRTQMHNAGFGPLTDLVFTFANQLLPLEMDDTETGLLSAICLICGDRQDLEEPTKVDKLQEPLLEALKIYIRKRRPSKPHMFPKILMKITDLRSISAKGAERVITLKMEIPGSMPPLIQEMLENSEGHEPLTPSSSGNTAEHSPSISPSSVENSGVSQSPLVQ

[8] = biological target: T5, Retinoic acid receptor gamma (Homo sapiens, UniProt P13631); format: functional, cell-based
T5 sequence (P13631 whole entry): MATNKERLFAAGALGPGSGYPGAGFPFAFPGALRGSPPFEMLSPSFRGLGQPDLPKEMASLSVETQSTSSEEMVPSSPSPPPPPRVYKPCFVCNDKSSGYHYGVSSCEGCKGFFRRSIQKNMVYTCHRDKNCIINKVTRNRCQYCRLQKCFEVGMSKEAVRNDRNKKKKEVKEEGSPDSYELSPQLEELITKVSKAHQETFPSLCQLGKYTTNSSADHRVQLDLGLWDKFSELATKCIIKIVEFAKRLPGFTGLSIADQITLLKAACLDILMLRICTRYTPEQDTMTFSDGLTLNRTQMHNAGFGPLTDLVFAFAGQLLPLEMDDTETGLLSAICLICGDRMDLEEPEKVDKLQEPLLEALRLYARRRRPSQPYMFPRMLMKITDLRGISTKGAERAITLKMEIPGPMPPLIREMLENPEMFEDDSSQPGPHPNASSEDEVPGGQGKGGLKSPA

[9] = biological target: Rod cGMP-specific 3',5'-cyclic phosphodiesterase subunit alpha (Homo sapiens, UniProt P16499); format: functional
Rod cGMP-specific 3',5'-cyclic phosphodiesterase subunit alpha, sequence (P16499 whole entry): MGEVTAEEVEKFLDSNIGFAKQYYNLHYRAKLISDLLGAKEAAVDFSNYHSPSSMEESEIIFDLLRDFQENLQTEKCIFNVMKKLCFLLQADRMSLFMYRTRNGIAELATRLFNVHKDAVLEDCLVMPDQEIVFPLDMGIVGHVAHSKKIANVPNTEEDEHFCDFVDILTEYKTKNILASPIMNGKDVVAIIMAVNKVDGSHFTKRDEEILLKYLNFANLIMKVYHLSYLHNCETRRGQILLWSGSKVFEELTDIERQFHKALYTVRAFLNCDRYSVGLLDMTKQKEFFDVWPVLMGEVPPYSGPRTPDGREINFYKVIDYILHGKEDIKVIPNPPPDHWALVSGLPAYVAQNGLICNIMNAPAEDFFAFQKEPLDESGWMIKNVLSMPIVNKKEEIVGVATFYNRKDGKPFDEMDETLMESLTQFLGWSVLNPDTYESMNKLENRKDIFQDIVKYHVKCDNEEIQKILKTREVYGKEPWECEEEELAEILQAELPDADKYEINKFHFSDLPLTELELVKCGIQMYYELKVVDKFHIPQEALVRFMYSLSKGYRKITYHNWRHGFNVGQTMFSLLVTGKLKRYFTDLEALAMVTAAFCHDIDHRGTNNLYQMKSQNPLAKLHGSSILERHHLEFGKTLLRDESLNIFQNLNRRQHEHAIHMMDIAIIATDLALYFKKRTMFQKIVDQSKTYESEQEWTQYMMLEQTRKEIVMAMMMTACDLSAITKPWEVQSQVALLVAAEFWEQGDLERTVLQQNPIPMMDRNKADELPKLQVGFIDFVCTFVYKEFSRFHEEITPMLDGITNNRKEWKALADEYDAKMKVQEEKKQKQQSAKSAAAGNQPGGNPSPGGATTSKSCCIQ
Note: assay procedure not described here.

SMILES: O=C(Nc1cccc2c(=O)cc(-c3nnn[nH]3)oc12)c1ccc(OCCCCc2ccccc2)cc1
AC50 [1]: 13.3 µM

AC50 [2]: > 30 µM
AC50 [3]: > 30 µM
AC50 [4]: > 30 µM
AC50 (Bile acid receptor [5]): > 30 µM
AC50 (Bile acid receptor [6]): > 30 µM
AC50 [7]: > 30 µM
AC50 [8]: > 30 µM
SMILES: CC(/C=C1\SC(=S)N(CC(=O)O)C1=O)=C\c1ccccc1

AC50 [3]: > 30 µM
AC50 [4]: 4.1 µM
AC50 (Bile acid receptor [5]): > 30 µM
AC50 (Bile acid receptor [6]): > 30 µM
AC50 [9]: > 10 µM
AC50 [7]: > 30 µM
AC50 [8]: 9.1 µM
SMILES: CC1(C)S[C@@H]2[C@H](NC(=O)[C@H](N)c3ccc(O)cc3)C(=O)N2[C@H]1C(=O)O [AMOXICILLIN]

AC50 [9]: > 10 µM
SMILES: COC(=O)[C@H](c1ccccc1Cl)N1CCc2sccc2C1 [CLOPIDOGREL]

SMILES: CCC(=O)O[C@@H](O[P@](=O)(CCCCc1ccccc1)CC(=O)N1C[C@H](C2CCCCC2)C[C@H]1C(=O)O)C(C)C [FOSINOPRIL]
AC50 [1]: > 30 µM

AC50 [2]: > 30 µM
SMILES: Nc1nc(O)c2ncn(COC(CO)CO)c2n1 [GANCICLOVIR]

SMILES: Cc1cnc(NC(=O)C2=C(O)c3ccccc3S(=O)(=O)N2C)s1 [MELOXICAM]
AC50 [9]: > 10 µM

SMILES: CN(C)c1cc(CNCC(C)(C)C)c(O)c2c1C[C@H]1C[C@H]3[C@H](N(C)C)C(O)=C(C(N)=O)C(=O)[C@@]3(O)C(O)=C1C2=O [OMADACYCLINE]
AC50 [1]: > 30 µM

SMILES: CNC(=O)c1cc(Oc2ccc(NC(=O)Nc3ccc(Cl)c(C(F)(F)F)c3)c(F)c2)ccn1 [REGORAFENIB]
AC50 [1]: > 30 µM
AC50 [3]: > 30 µM
AC50 [4]: > 30 µM
AC50 (Bile acid receptor [5]): > 30 µM
AC50 (Bile acid receptor [6]): > 30 µM
AC50 [7]: > 30 µM
AC50 [8]: 9 µM

AC50 [3]: > 30 µM
AC50 [4]: > 30 µM
AC50 (Bile acid receptor [5]): > 30 µM
AC50 (Bile acid receptor [6]): > 30 µM
AC50 [7]: > 30 µM
AC50 [8]: > 30 µM
SMILES: CCOc1cc(CC(=O)N[C@@H](CC(C)C)c2ccccc2N2CCCCC2)ccc1C(=O)O [REPAGLINIDE]

AC50 [2]: > 30 µM
SMILES: CC(C)N(CCCCOCC(=O)NS(C)(=O)=O)c1cnc(-c2ccccc2)c(-c2ccccc2)n1 [SELEXIPAG]

SMILES: CCCCNc1ccc(C(=O)OCCN(C)C)cc1 [TETRACAINE]
AC50 [9]: > 10 µM

SMILES: CN1CCN(CCCN2c3ccccc3Sc3ccc(S(=O)(=O)N(C)C)cc32)CC1 [THIOPROPERAZINE]
AC50 [1]: 0.003 µM

AC50 [2]: > 30 µM
SMILES: Cc1cc(CC(=O)O)n(C)c1C(=O)c1ccc(Cl)cc1 [ZOMEPIRAC]
